# According to US20260234163A1, “NOVEL COMPOUNDS AND USES THEREOF” (ACELINK THERAPEUTICS, INC., priority 2023, published 2026):
# Target: T1, Keap1-Nrf2 (Homo sapiens, UniProt Q14145)
# T1 construct: purchased Sino Biological 11981-H20B
# Assay: Keap1-Nrf2 Binding Inhibitory Activity Assay (fluorescence polarization, Keap1_FL + FITC-Nrf2 peptide)
# Conditions: Keap1-FL, 60 min room temperature
# Protocol: Example 2.1 Keap1-Nrf2 Binding Inhibitory Activity Assay
# • PerkinElmer EnVision 2105 Multilabel Reader • PerkinElmer FITC FP dual emission Label 2100-8060 • LABCYTE Echo 650 • Corning 384-well microplate #4514 • Keap1_FL, Sino Biological, catalog 11981-H20B • FITC-Nrf2 peptide, GL Biochem, Lot No: p210427-XQ892761
# • a) Reference titration • 1. Keap1-Nrf2 Assay Buffer was prepared: 10 mM Tris-HCl pH 7.4, 150 mM NaCl, 50 mM EDTA, 0.05% Tween20, 0.1 mg/ml BSA (freshly add before use). • 2. 2.04× Tracer working solution was prepared: 2.04 nM FITC-Nrf2 peptide in Assay Buffer from 1 μM DMSO stock. • 3. 2× Protein working solution was prepared: 25 nM Keap1-FL in Assay Buffer. • 4. 100× compound working solutions with DMSO were prepared. Starting from 100 μM, serial 3-fold dilutions (10 points) were made by the Echo on the 384-well LDV microplate, then 200 nL of compounds, in duplicated wells, were transferred to a Corning 4514 plate. • 5. 9.8 μL per well of the Tracer working solution was added into the Corning 4514 plate. • 6. 10 μL per well of the Protein working solution was added into the Corning 4514 plate, except for the first two columns where Dilution Buffer were added to serve as “positive control”. • 7. The plate was incubated at room temperature for 60 min. • b) Read data on an EnVision with the following setting: Excitation Light (%): 84; Measurement Height: 9.4; G-Factor: 1; Detector Gain 1:220; Detector Gain 2: 220; Flash Number: 50.
# All the Test Compounds were considered as having Keap1-Nrf2 binding inhibitory activity.
row,SMILES,IC50 [nM]
1,"Cc1c2ccc3c1nnn3CCCOCc1ccc(cc1)C(=O)N(C)Cc1cccc(c1)C2CC(=O)O (stereo not shown) [Compound 7, 2-(1^4,5-dimethyl-6-oxo-1^1H-9-oxa-5-aza-1(5,1)-benzo[d][1,2,3]triazola-3(1,3), 7(1,4)-dibenzenacyclododecaphane-2-yl)acetic acid]",≤ 100
2,"Cc1c2ccc3c1nnn3CCCOCc1ccc(cc1)C(=O)N(C)Cc1cccc(n1)C2CC(=O)O (single isomer, unassigned) [Compound 25]",1000 to 10000
3,"Cc1c2ccc3c1nnn3CCCCCC1CCN(CC1)C(=O)N1CCc3ccc(cc3C1)C2CC(=O)O (single isomer, unassigned) [Compound 28]",≤ 100
4,"O=C(O)CC1c2ccc3c(c2)CN(CC3)C(=O)C2CCC(CCCCCn3nnc4cc1cnc43)CC2 (stereo not shown) [Compound 55, 2-(4-oxo-31,32,33,34-tetrahydro-13H-3(7,2)-isoquinolina-1(6,3)-[1,2,3]triazolo[4,5-b]pyridina-5(1,4)-cyclohexanacyclodecaphane-2-yl)acetic acid]",≤ 100
5,"O=C(O)CC1c2ccc3c(c2)CN(CC3)C(=O)N2CCC(CCCCn3nnc4cc1cnc43)CC2 (single isomer, unassigned) [Compound 51]",100 to 1000
6,"Cc1c2ccc3c1nnn3CCOCCN1CCC(CC1)C(=O)N1CCc3ccc(cc3C1)C2CC(=O)O (stereo not shown) [Compound 3, 2-(carboxymethyl)-1^4-methyl-4-oxo-3^1,3^2,3^3,3^4-tetrahydro-1^1H-8-oxa-3(7,2)-isoquinolina-1(5,1)-benzo[d][1,2,3]triazola-5(4,1)-piperidin-1-iumacyclodecaphan-5^1-ium chloride]",1000 to 10000
7,Cc1c2ccc3c1nnn3CCCCC1CCC(CC1)C(=O)N1CCc3ccc(cc3C1)C2CC(=O)O (stereo not shown) [Compound 34],≤ 100
8,Cc1c2ccc3c1nnn3CCCCC1CCN(CC1)C(=O)N(C)Cc1cccc(c1)C2CC(=O)O (stereo not shown) [Compound 32],1000 to 10000
9,Cc1c2ccc3c1nnn3CCCCC1CCC(CC1)C(=O)N(C)Cc1cccc(c1)C2CC(=O)O (stereo not shown) [Compound 36],100 to 1000
10,"Cc1c2ccc3c1nnn3CCCOCc1ccc(cc1)C(=O)N(C)Cc1cncc(c1)C2CC(=O)O (single isomer, unassigned) [Compound 20]",1000 to 10000
11,"Cc1c2ccc3c1nnn3CCCCCC1CCC(CC1)C(=O)N1CCc3ccc(cc3C1)C2CC(=O)O (single isomer, unassigned) [Compound 50]",≤ 100
12,"Cc1c2ccc3c1nnn3CCCOCc1ccc(cc1)C(=O)N(C)Cc1cncc(c1)C2CC(=O)O (single isomer, unassigned) [Compound 23]",1000 to 10000
13,Cc1c2ccc3c1nnn3CCCCCNC(=O)N1CCc3ccc(cc3C1)C2CC(=O)O (stereo not shown) [Compound 43],1000 to 10000
14,Cc1c2ccc3c1nnn3CCCOCc1ccc(cc1)S(=O)(=O)N(C)Cc1cccc(c1)C2CC(=O)O (stereo not shown) [Compound 22],1000 to 10000
15,"Cc1c2ccc3c1nnn3CCOCCOC1CCN(CC1)C(=O)c1ccc3ccc(cc3c1)C2CC(=O)O (single isomer, unassigned) [Compound 18]",1000 to 10000
16,"Cc1c2ccc3c1nnn3CCOCCOC1CCN(CC1)C(=O)c1ccc3ccc(cc3c1)C2CC(=O)O (single isomer, unassigned) [Compound 19]",1000 to 10000
17,Cc1c2ccc3c1nnn3CCCCC(=O)N1CCc3ccc(cc3C1)C2CC(=O)O (stereo not shown) [Compound 46],100 to 1000
18,"Cc1c2ccc3c1nnn3CCCCC1CCC(CC1)C(=O)N1CCc3ccc(cc3C1)C2CC(=O)O (single isomer, unassigned) [Compound 47]",≤ 100

row,SMILES,IC50 [nM]
1,Cc1c2ccc3c1nnn3CCCCCCCCNC(=O)N1CCc3ccc(cc3C1)C2CC(=O)O (stereo not shown) [Compound 38],≤ 100
2,Cc1c2ccc3c1nnn3CCCOCc1ccc(cc1)C(=O)N(C)Cc1ccnc(c1)C2CC(=O)O (stereo not shown) [Compound 21],100 to 1000
3,"Cc1c2ccc3c1nnn3CCCCCC1CCC(CC1)C(=O)N1CCc3ccc(cc3C1)C2CC(=O)O (single isomer, unassigned) [Compound 49]",≤ 100
4,Cc1c2ccc3c1nnn3CCCCCC1CCN(CC1)C(=O)N(C)Cc1cccc(c1)C2CC(=O)O (stereo not shown) [Compound 31],100 to 1000
5,"Cc1c2ccc3c1nnn3CCCCCC1CCN(CC1)C(=O)N(C)CCc1ccc(cc1)C2CC(=O)O (stereo not shown) [Compound 44, 2-(14,6-dimethyl-7-oxo-11H-6-aza-1(5,1)-benzo[d][1,2,3]triazola-8(1,4)-piperidina-3(1,4)-benzenacyclotridecaphane-2-yl)acetic acid]",1000 to 10000
6,"Cc1c2ccc3c1nnn3CCCCOc1ccc(cc1)S(=O)(=O)N1CCc3ccc(cc3C1)C2CC(=O)O (stereo not shown) [Compound 13, 2-(1^4-methyl-4,4-dioxido-3^1,3^2,3^3,3^4-tetrahydro-1^1H-6-oxa-4-thia-3(7,2)-isoquinolina-1(5,1)-benzo[d][1,2,3]triazola-5(1,4)-benzenacyclodecaphane-2-yl)acetic acid]",≤ 100
7,"Cc1c2ccc3c1nnn3CCOCCOC1CCN(CC1)C(=O)c1ccc3c(c1)CN(CC3)C2CC(=O)O (stereo not shown) [Compound 9, 2-(carboxymethyl)-1^4-methyl-4-oxo-3^1,3^2,3^3,3^4-tetrahydro-1^1H-6,9-dioxa-3(2,7)-isoquinolin-2-iuma-1(5,1)-benzo[d][1,2,3]triazola-5(1,4)-piperidinacycloundecaphan-3^2-ium chloride]",1000 to 10000
8,"Cc1c2ccc3c1nnn3CCCOCc1ccc(cc1)C(=O)N(C)Cc1cc(ccn1)C2CC(=O)O (single isomer, unassigned) [Compound 26]",100 to 1000
9,"Cc1c2ccc3c1nnn3CCCCOC1CCN(CC1)S(=O)(=O)N1CCc3ccc(cc3C1)C2CC(=O)O (stereo not shown) [Compound 6, 2-(1^4-methyl-4,4-dioxido-3^1,3^2,3^3,3^4-tetrahydro-1^1H-6-oxa-4-thia-3(7,2)-isoquinolina-1(5,1)-benzo[d][1,2,3]triazola-5(1,4)-piperidinacyclodecaphane-2-yl)acetic acid]",≤ 100
10,Cc1c2ccc3c1nnn3CCCCCCCCCC(=O)N1CCc3ccc(cc3C1)C2CC(=O)O (stereo not shown) [Compound 41],≤ 100
11,"Cc1c2ccc3c1nnn3CCOCCOC1CCN(CC1)S(=O)(=O)N1CCc3ccc(cc3C1)C2CC(=O)O (stereo not shown) [Compound 15, 2-(1^4-methyl-4,4-dioxido-3^1,3^2,3^3,3^4-tetrahydro-1^1H-6,9-dioxa-4-thia-3(7,2)-isoquinolina-1(5,1)-benzo[d][1,2,3]triazola-5(1,4)-piperidinacycloundecaphane-2-yl)acetic acid]",≤ 100
12,"Cc1c2ccc3c1nnn3CCCOCc1ccc(cc1)C(=O)N(C)Cc1cc(ccn1)C2CC(=O)O (single isomer, unassigned) [Compound 27]",1000 to 10000
13,"Cc1c2ccc3c1nnn3CCCOCc1ccc(cc1)C(=O)N(C)Cc1cccc(n1)C2CC(=O)O (single isomer, unassigned) [Compound 24]",100 to 1000
14,"Cc1c2ccc3c1nnn3CCCCC1CCC(CC1)C(=O)N1CCc3ccc(cc3C1)C2CC(=O)O (single isomer, unassigned) [Compound 48]",≤ 100
15,"Cc1ccc2cc1CN(C)C(=O)c1ccc(cc1)COCCCn1nnc3c(C)c(ccc31)C2CC(=O)O (single isomer, unassigned) [Compound 16, 2-(1^4,3^4,5-trimethyl-6-oxo-1^1H-9-oxa-5-aza-1(5,1)-benzo[d][1,2,3]triazola-3(1,3), 7(1,4)-dibenzenacyclododecaphane-2-yl)acetic acid]",1000 to 10000
16,"O=C(O)CC1c2ccc3c(c2)CN(CC3)C(=O)N2CCC(CCCCn3nnc4cc1cnc43)CC2 (single isomer, unassigned) [Compound 52]",≤ 100
17,Cc1c2ccc3c1nnn3CCCCCCC(=O)N1CCc3ccc(cc3C1)C2CC(=O)O (stereo not shown) [Compound 42],≤ 100
18,"Cc1c2ccc3c1nnn3CCCCCC1CCN(CC1)C(=O)N1CCc3ccc(cc3C1)C2CC(=O)O (single isomer, unassigned) [Compound 29]",≤ 100

# System: Nrf2
# Assay: Nrf2 Cellular Assay (pGL4.37[luc2P/ARE/Hygro] luciferase reporter in HepG2 cells)
# Assay type: cell-based
# Conditions: Homo sapiens, HepG2, 6 h, ARE luciferase, 6 hours compound treatment
# Protocol: Example 2.2 Nrf2 Cellular Assay
# • 1. pGL4.37[luc2P/ARE/Hygro] vector was diluted to 25 ng/μL in Opti-MEM. • 2. Lipofectamine 3000 was added to a 2:1 lipid:DNA. The mixture was mixed by pipetting and incubate at room temperature for 15 minutes. • 3. HepG2 cells were cultured in complete medium (DMEM+10% FBS). • 4. Trypsin was added to the cells, which were filtered via a cell strainer to remove cell cluster, the cells were then quantified and diluted to 2×10^5 cells/ml in complete medium. • 5. The cells and plasmid were mixed, seeded to 384-well plate 50 μL per well (50 ng DNA/well) and incubated for 24 hours in a 37° C., 5% CO2 incubator.
# • 1. Medium was removed from cells and replaced with 36 μL of DMEM+10% FBS per well. • 2. Incubated overnight in a 37° C., 5% CO2 incubator.
# • 1. Test compound was serially diluted tin DMSO, and further diluted with DMEM (contains 10% FBS) to 10× final concentration. • 2. 4 μL of the 10× compound was added to each well, the plate was shaken for 10 sec on a plate shaker and incubated for 6 hours in a 37° C., 5% CO2 incubator.
# • 1. Plates were removed from the 37° C., 5% CO2 incubator and allowed to cool to room temperature for approximately 15 minutes. • 2. 40 μL of the Glo Luciferase Assay System detection reagents were added, and the plate was shaken for 3 min and luminescence was measured.
row,SMILES,EC50 [µM]
1,"Cc1c2ccc3c1nnn3CCCOCc1ccc(cc1)C(=O)N(C)Cc1cccc(c1)C2CC(=O)O (stereo not shown) [Compound 7, 2-(1^4,5-dimethyl-6-oxo-1^1H-9-oxa-5-aza-1(5,1)-benzo[d][1,2,3]triazola-3(1,3), 7(1,4)-dibenzenacyclododecaphane-2-yl)acetic acid]",10 to 30
2,"O=C(O)CC1c2ccc3c(c2)CN(CC3)C(=O)C2CCC(CCCCCn3nnc4cc1cnc43)CC2 (stereo not shown) [Compound 55, 2-(4-oxo-31,32,33,34-tetrahydro-13H-3(7,2)-isoquinolina-1(6,3)-[1,2,3]triazolo[4,5-b]pyridina-5(1,4)-cyclohexanacyclodecaphane-2-yl)acetic acid]",≤ 10
3,"Cc1c2ccc3c1nnn3CCOCCN1CCC(CC1)C(=O)N1CCc3ccc(cc3C1)C2CC(=O)O (stereo not shown) [Compound 3, 2-(carboxymethyl)-1^4-methyl-4-oxo-3^1,3^2,3^3,3^4-tetrahydro-1^1H-8-oxa-3(7,2)-isoquinolina-1(5,1)-benzo[d][1,2,3]triazola-5(4,1)-piperidin-1-iumacyclodecaphan-5^1-ium chloride]",> 30
4,Cc1c2ccc3c1nnn3CCCCC1CCC(CC1)C(=O)N1CCc3ccc(cc3C1)C2CC(=O)O (stereo not shown) [Compound 34],≤ 10
